Results reported in paper PMC7984827, “A high-content AlphaScreen™ identifies E6-specific small molecule inhibitors as potential therapeutics for HPV^+ head and neck squamous cell carcinomas” (Oncotarget, 2021).
Where two headings read alike, the source gives them in different places.

Key:
[1] = test system: Caspase 3/7 activity in SCC19, SCC84; test: Caspase 3/7 Glo activity assay, HPV- cell lines; format: cell-based; settings: 0.75 μM, 24 hr
Experimental: (§1) Cells were seeded into white walled 96-well plates at 2 × 10^4 cells per well in 100 μL media and incubated overnight. GA-OH (0.75 μM) and vehicle were then added and incubated at 37°C for 24 hr. Caspase 3/7 activity was measured using the Caspase 3/7 Glo kit (Promega, Fitchburg, WI, USA) following the manufacturer's instructions. Briefly, room temperature-equilibrated Caspase-Glo reagent was added (Promega) to each well. The plate was mixed by placing it on an orbital shaker and incubated for 30 secs at room temperature, then incubated at room temperature. After a 2-hr incubation, luminescence was measured using a plate-reading fluorimeter (Flx800, Bio-Tek Instrument Co., Winooski, VT, USA). Background activity (blank reaction) was subtracted from all experimental wells. Percent activity of caspase 3/7 in wells treated with GA was then expressed relative to vehicle treated wells.

[2] = test system: p53, p21, caspase 8 in SCC90 and SCC104 cells; test: Western blotting of p53, p21 and caspase 8 in HPV+ cells; format: cell-based; settings: 24 hours
Experimental: Adherent cells were washed with ice cold PBS. Cell lysis buffer containing protease inhibitor cocktail was added and cells were scraped off into a tube on ice. The cells were incubated on ice for 10 minutes. Cell lysates were separated by SDS-PAGE and electrophoretically transferred to PVDF membranes. Following blocking, antibodies directed against caspase 8, p53, cleaved PARP, cleaved caspase 3, p21, and β-actin (Cell signaling) were applied at 1:5000 dilution. Anti-mouse and anti-rabbit secondary antibodies were then employed (LI-COR Biosciences, Lincoln, NE, USA). Signals were measured using the Odyssey Infrared Imaging system (LI-COR Biosciences) and quantified using Image J.

SCC19 (HPV-) = test: Colony formation assay, SCC19; format: cell-based; settings: 24 hours treatment then seeded
Experimental: (§2) Sub-confluent monolayer cells were treated with different doses of GA-OH for 24 hours. Cells were trypsinized and re-suspended before re-plating into 6 well plates in DMEM or MEM at 500–1000 cell densities, depending on the cell line. Cells were then allowed to grow for 10–20 days, depending on the cell line, before fixing and staining. A mixture of methanol/acetic acid was used for fixing, followed by 0.5% crystal violet staining. Plates were imaged using UV imager, and colonies with more than […] counted using image J. Surviving fractions were determined by dividing the number of colonies by the number of cells seeded as a product of the corresponding plating efficiency. Survival fractions curves were plotted using GraphPad Prism.

E6-Caspase 8 binding = biological target: T1, E6-Caspase 8 binding (Human papillomavirus type 16, UniProt P03126); test: biochemical; set-up: species or system HPV E6, human Caspase 8; settings: for inhibitory activity against E6-caspase 8 binding relative to GA (in words): SAR of analogs, Figure 6A; for activity against E6-caspase 8 binding, deviation from the parent compound (less active): relative to gambogic acid
T1 construct: made in house; host or cells: E. coli
Experimental: The compounds were diluted to a working concentration in DMSO and screened at a single-point final concentration of 10 μM with no replicates. Briefly, 75 nL of each compound was transferred and added to wells of the destination 384-well plate using the Echo dispenser to 4 μL of blocking solution. 4 μL of 800 nM GST-E6 and 4 μL of His6-Caspase 8 were added and pre-incubated at room temperature for 60 minutes. 8 μL of the donor and acceptor bead mixture (final concentration of 20 μg/ml) was then added. The plates were sealed and incubated for 4 hours at room temperature before the plates were read using the EnvisionTM Multi-Label plate reader (Perkin Elmer Inc.). […] A 10-point serial dilution of these compounds was done for dose-dependency reconfirmation. Dose response inhibition curves were constructed and IC50 calculated using GraphPad Prism using four parameter non-linear regression analysis.
The first counter-screen assay was based using the GST-His6 fusion peptide as the E6-binding partner instead of GST-E6-His6-Caspase 8. Hit candidate compounds from the primary screen were prepared using a 6-point serial dilution. Using an Echo dispenser, compounds were transferred to plates containing 4 μL of blocking buffer. 8 μL of 5 nM GST-His6 peptide substrate was then added. The mixture was pre-incubated at room temperature for 60 minutes. Glutathione donor and nickel chelate acceptor beads (final concentration 20 μg/mL) were added and incubated for another 60 minutes at room temperature. Dose-dependency of the compounds using GST-E6-His6-Caspase 8 was performed in parallel using the same protocol as in the primary screen. The signals were then read using the Envision™ plate reader.
(§3) Using the SciFinder and Zinc15 databases, we searched and identified several gambogic acid structural analogs. A subset of these analogues was commercially available and we purchased 8. The 8 analogs were obtained as follow: gambogenic amide (Enzo Life Sciences), gambogenic acid (Selleckchem), morellic acid (Aobious), 30-hydroxy gambogic acid (Quality Phytochemicals, LLC), acetyl gambogic acid (Microsource), and gambogin, neogambogic acid and isomorellinol (MolPort Natural Products). Additional gambogic acid was purchased from Tocris. The interactions of the analogues with E6-caspase 8 was tested using AlphaScreen™ technology using the same protocol as with the primary screen, and were compared to the parent compound. The effect on cell viability was also similarly done in HPV^+ and HPV^- cell lines via the MTT assay (see below) and potency was determined using GraphPad IC50 curve fitting.

[3] = test system: HPV+ (SCC47, SCC090, SCC104, SCC152) and HPV- (SCC19, SCC29, SCC49, SCC84) HNSCC cell lines; test: MTT cell viability, HNSCC cell line panel; format: cell-based; settings: 24 hr, Figure 7A
Experimental: (§4) All working concentrations were diluted in PBS to the desired concentration before use. To test the effect of gambogic acid and/or its derivatives on cell viability, all cell lines were seeded at 2 × 10^4 per well in 96-well plates and allowed to adhere overnight. Various concentrations of the analogues were added and the cells incubated at 37°C for 24 hr. Viability was then measured using the MTT assay, performed as described previously. All experiments were repeated at least three times (three biological replicates, carried out on different days). Data presented are from a representative experiment. Cell viability and potency were assessed from % inhibition relative to the vehicle control, and IC50 dose curves were generated using GraphPad Prism.

[4] = test system: HPV+ HNSCC cell line SCC104; test: MTT cell viability assay of analogs in SCC104; format: cell-based; settings: SCC104, 24 hr; for activity / potency in cell-based MTT assay (in words): Figure 6B
Source text: as §3, §4

[5] = test system: Caspase 3/7 activity in SCC090, SCC104, SiHa; test: Caspase 3/7 Glo activity assay, HPV+ cell lines; format: cell-based; settings: 0.75 μM, 24 hr
Experimental: as §1

SCC104 (HPV+) = test: Colony formation assay, SCC104; format: cell-based; settings: 24 hours treatment then seeded
Experimental: as §2

E6-E6AP binding = biological target: T2, E6-E6AP binding (Human papillomavirus type 16, UniProt P03126); test: biochemical; set-up: species or system HPV E6
T2 construct: made in house; host or cells: E. coli
Source text: Compounds that passed the two counter-screens were subjected to cheminformatic analysis as an additional filter for recognition and exclusion of compounds with problematic substructures. These substructures contain functional groups that may disrupt binding in many unrelated biochemical assays in a non-specific manner. Specifically, from the names and SMILES of the hit compounds we queried the following databases to find hits with pan assay interference (PAINS) patterns: Zinc15, SwissADME, FAFdrugs4 and PAINS-Remover. Compounds that made it onto the consensus list as having no PAINS patterns after filtering with these online tools were then selected. We then cross-validated the selected compound(s) with a related but different primary screen assay. Specifically, we replaced the caspase 8 used in the primary screen with E6AP and evaluated the inhibitory activity against E6 binding to E6AP (E6-E6AP) using the same steps as in the AlphaScreen™ protocol described above.

[6] = set-up: method as in PMID 18384990, PMID 29077076; settings: toxicities to organs only at high concentrations; cited from earlier work

T1 sequence (P03126 whole entry): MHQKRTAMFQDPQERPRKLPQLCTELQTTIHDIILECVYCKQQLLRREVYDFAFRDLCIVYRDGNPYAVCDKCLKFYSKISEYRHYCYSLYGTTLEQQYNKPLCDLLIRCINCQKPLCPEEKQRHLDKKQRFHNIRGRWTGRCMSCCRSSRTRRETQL
T2 sequence (P03126 whole entry): as above

SMILES: CC(C)=CCCC1(C)C=Cc2c(O)c3c(c(CC=C(C)C)c2O1)OC12C(=CC4CC1C(C)(C)OC2(CC=C(CO)C(=O)O)C4=O)C3=O (stereo not drawn) [GA-OH, 30-hydroxygambogic acid]
- apoptosis activity (Caspase 3/7 activity) [1]: little to no apoptosis activity
- caspase 8 cleavage by western blot ([2]; HPV+ cells, 0.5 μM and 1 μM): cleavage of caspase 8 in a dose-dependent manner
- p53 level by immunoblotting ([2]; SCC90 and SCC104, 0.5 μM and 1 μM): increase of p53
- p21 level by immunoblotting ([2]; compared to vehicle control, 0.5 μM and 1 μM): robust induction
- number of colonies (SCC19 (HPV-)): did not exhibit significant reduction relative to their control except at high concentrations
- inhibitory activity against E6-caspase 8 binding relative to GA (in words) (E6-Caspase 8 binding): more effectively inhibited E6 binding to caspase 8 than any of the other analogs or the parent compound
- sensitivity of HPV+ versus HPV- HNSCC cell lines, MTT cell viability [3]: higher sensitivity
- activity / potency in cell-based MTT assay (in words) [4]: highest potency of all analogs
- apoptosis induction (Caspase 3/7 activity) [5]: Significant apoptosis induction
- number of colonies (SCC104 (HPV+)): significantly and dose-dependently reduced

SMILES: CC(C)=CCc1c2c(c(O)c3c1O[C@]14C(=C[C@@H]5C[C@H]1C(C)(C)O[C@@]4(C/C=C(/C)C(=O)O)C5=O)C3=O)C=CC(C)(C)O2 [analog #2, morellic acid]
- inhibitory activity against E6-caspase 8 binding relative to GA (in words) (E6-Caspase 8 binding): did not significantly affect the activity

SMILES: CC(C)=CCC/C(C)=C/Cc1c(O)c(CC=C(C)C)c2c(c1O)C(=O)C1=C[C@@H]3C[C@H]4C(C)(C)O[C@@](C/C=C(/C)C(=O)O)(C3=O)[C@@]14O2 [analog #3, gambogenic acid]
- activity against E6-caspase 8 binding, deviation from the parent compound (less active) (E6-Caspase 8 binding): > 3 logs
- rank of highest IC50 relative to the parent compound, MTT [4]: third

SMILES: CC(C)=CCC[C@]1(C)C=Cc2c(O)c3c(c(CC=C(C)C)c2O1)O[C@]12C(=C[C@@H]4CC1C(C)(C)O[C@@]2(C/C=C(/C)C(N)=O)C4=O)C3=O [analog #4, gambogic amide]
- inhibitory activity against E6-caspase 8 binding relative to GA (in words) (E6-Caspase 8 binding): did not significantly affect the activity

SMILES: CC(C)=CCCC1(C)CC(O)c2c(O)c3c(c(CC=C(C)C)c2O1)OC12C(=CC4CC1C(C)(C)OC2(C/C=C(\C)C(=O)O)C4=O)C3=O (stereo not drawn) [analog #5, neo-gambogic acid]
- activity against E6-caspase 8 binding, deviation from the parent compound (less active) (E6-Caspase 8 binding): > 3 logs
- rank of highest IC50 relative to the parent compound, MTT [4]: fourth

SMILES: CC(C)=CCCC1(C)C=Cc2c(O)c3c(c(CC=C(C)C)c2O1)O[C@]12C(=CC4C[C@H]1C(C)(C)OC2(CC=C(C)C)C4=O)C3=O (stereo partly drawn) [analog #6, gambogin]
- activity against E6-caspase 8 binding, deviation from the parent compound (less active) (E6-Caspase 8 binding): > 3 logs
- rank of highest IC50 relative to the parent compound, MTT [4]: first

SMILES: CC(C)=CCc1c2c(c(O)c3c1OC14C(=CC5CC1C(C)(C)OC4(C/C=C(\C)CO)C5=O)C3=O)C=CC(C)(C)O2 (stereo not drawn) [analog #7, iso morellinol]
- inhibitory activity against E6-caspase 8 binding relative to GA (in words) (E6-Caspase 8 binding): did not significantly affect the activity

SMILES: CC(=O)Oc1c2c(c(CC=C(C)C)c3c1C(=O)C1=C[C@@H]4CC5C(C)(C)OC(C/C=C(\C)C(=O)O)(C4=O)[C@@]15O3)OC(C)(CCC=C(C)C)C=C2 (stereo partly drawn) [analog #8, acetyl iso-gambogic acid]
- inhibitory activity against E6-caspase 8 binding relative to GA (in words) (E6-Caspase 8 binding): did not significantly affect the activity
- activity / potency in cell-based MTT assay (in words) [4]: diminished activity

SMILES: CC(C)=CCC[C@]1(C)C=Cc2c(O)c3c(c(CC=C(C)C)c2O1)O[C@]12C(=C[C@@H]4C[C@H]1C(C)(C)O[C@@]2(C/C=C(/C)C(=O)O)C4=O)C3=O [gambogic acid]
- IC50 (E6-Caspase 8 binding; 11 compounds that passed counter-screening (Supplementary Table 3), read-out: IC50 against E6-Caspase 8 binding): 2000 nM
- IC50 (E6-Caspase 8 binding; head-to-head comparison gambogic acid vs myricetin (Figure 4A), read-out: IC50 against E6-Caspase 8): 1900 nM
- IC50 (E6-E6AP binding): 1700 nM
- tolerability in animal studies [6]: relatively tolerable

SMILES: O=c1c(O)c(-c2cc(O)c(O)c(O)c2)oc2cc(O)cc(O)c12 [myricetin, reference compound]
- IC50 (E6-Caspase 8 binding; IC50 against E6-Caspase 8): 4600 nM
- IC50 (E6-E6AP binding): 5600 nM
